“Also recorded” adds a separate entry of the source. Where a name gives a salt, the structure may show the parent alone.
Tests used:
[1] = Dynamic / gravimetric vapour sorption (DVS/GVS) hygroscopicity; assay type: physicochemical
Method: Approximately, 10-20 mg of sample was placed into a mesh vapour sorption balance pan and loaded into a DVS Intrinsic dynamic vapour sorption balance by Surface Measurement Systems. The sample was subjected to a ramping profile from 40-90% relative humidity (RH) at 10% increments, maintaining the sample at each step until a stable weight had been achieved (dm/dt 0.004%, minimum step length 30 minutes, maximum step length 500 minutes) at 25° C. After completion of the sorption cycle, the sample was dried using the same procedure to 0% RH and then a second sorption cycle back to 40% RH. Two cycles were performed. The weight change during the sorption/desorption cycles were plotted, allowing for the hygroscopic nature of the sample to be determined. XRPD analysis was then carried out on any solid retained.
Approximately 10-20 mg of sample was placed into a mesh vapour sorption balance pan and loaded into an IGASorp Moisture Sorption Analyser balance by Hiden Analytical. The sample was subjected to a ramping profile from 40-90% relative humidity (RH) at 10% increments, maintaining the sample at each step until a stable weight had been achieved (98% step completion, minimum step length 30 minutes, maximum step length 60 minutes) at 25° C. After completion of the sorption cycle, the sample was dried using the same procedure to 0% RH, and finally taken back to the starting point of 40% RH. Two cycles were performed. The weight change during the sorption/desorption cycles were plotted, allowing for the hygroscopic nature of the sample to be determined.

[2] = 1-week stability studies (XRPD, HPLC); assay type: physicochemical; details: 1 week; ambient temperature, light and humidity; 40° C./75% RH; 80° C.
Method: The isolated 1-methyl-1,4,5,10-tetrahydropyrazolo[3,4-b][1,5]benzodiazepine freebase was characterized by TG/DTA, DSC, DVS with post-DVS, XRPD, HPLC, ^1H NMR and LC-MS, as per the methods detailed above. The 1-methyl-1,4,5,10-tetrahydropyrazolo[3,4-b][1,5]benzodiazepine freebase was stored at 40° C./75% relative humidity (RH) for 1 week to determine the stability of the material at increased RH and to identify potential hydrate formation.
One-week stability studies were conducted on the freebase (example 1), phosphate form 1 (example 3) and L-tartrate form 1 (example 5) salts using the following procedures: • Approximately 20 mg of each form was weighed into 3×2 mL glass vials. • One vial for each form was stored under the following conditions for 1-week: • 1. Ambient temperature, light and humidity (unsealed vial) • 2. 40° C./75% RH (unsealed vial) • 3. 80° C. (sealed vial) • The samples were collected after 1-week and observations were made. • The solids were analyzed by XRPD and HPLC.

[3] = Salt disproportionation studies in deionized water; assay type: physicochemical; details: about 24 hours
Method: (§1) The following procedure was used during the salt disproportionation studies: • Approximately 20 mg of phosphate form 1 (Example 3) and L-tartrate form 1 (Example 5) were weighed into 2 mL glass vials. • Deionized water was added to each sample in 100 μL aliquots until a mobile slurry was observed. • The slurries were agitated at ambient temperature for about 24 hours. • The slurries were collected and filtered via centrifugation. • The isolated solids were analyzed by XRPD. • The pH of the mother liquors were recorded.

[4] = Hydration studies in methanol/water mixtures; assay type: physicochemical; details: MeOH/water mixtures, water activity 0.2, 0.6, 0.8, about 24 hours
Method: as §1, with “the hydration” for “the salt disproportionation”, “• Selected methanol/deionized” for “• Deionized”, “water mixtures (see Table 5) were” for “water was”

[5] = Thermodynamic solubility in PBS buffer pH 7.4; assay type: physicochemical
Method: The thermodynamic solubility of freebase (example 1), phosphate form 1 (example 3) and L-tartrate form 1 (example 5) were assessed in phosphate buffered saline (PBS) buffer at pH 7.4 according to the following procedure: • Approximately 30 mg of each form was weighed into 2 mL glass vials. • 100 μL of buffer solution was added to each vial until partial dissolution was observed. • The observed slurries were agitated at ambient temperature for about 24 hours. • The samples were collected, and observations were recorded. • The samples were filtered via centrifugation. • The pH of the mother liquors were recorded. • The concentration of the mother liquors were recorded by HPLC.

[6] = test system: C57BL/6 mouse model of opioid withdrawal; experiment: Naloxone precipitated oxycodone withdrawal-induced jumping; assay type: in vivo; details: 7.3 mg/kg FBE i.p., C57BL/6 mice, 30 min session, vs OXY_VEH
Method: Two cohorts of adult male C57BL/6 mice were run assessing the effects of 7.3 mg/kg freebase equivalent (FBE) IP of the compound of the invention in the dihydrochloride salt form (CMPD1-2HCL) and the phosphate form 1 (CMPD1-PO4) on naloxone precipitated withdrawal-induced jumping.
The first cohort of mice (N=30) were split into the following conditions: • (1) Vehicle, 0 mg/kg (n=10); • (2) oxycodone, 0 mg/kg compound of the invention FBE in 2HCL salt form (n=10); • (3) oxycodone, 7.3 mg/kg compound of the invention FBE in 2HCL salt form (n=10).
The second cohort of mice (N=24) were split into the following conditions: • (1) Vehicle, 0 mg/kg (n=8); • (2) oxycodone, 0 mg/kg compound of the invention FBE in PO4 salt form (n=8); • (3) oxycodone, 7.3 mg/kg compound of the invention FBE in PO4 salt form (n=8).
Mice in the oxycodone conditions received i.p. injections of oxycodone for 5 days according to the schedule and doses set out in Table 8. The morning and afternoon doses were separated by 7 h. Mice in the vehicle condition received injections of vehicle saline instead of oxycodone. […]
Testing involved placing mice individually into a 20 (I)×20 (w)×30 (h) cm arena for 30 min. […] Number of jumps were scored from the videos by an experienced experimenter blind to conditions.
Data were analysed by SPSS using oneway ANOVA and planned contrasts.

## Cn1ncc2c1Nc1ccccc1NC2 [Phosphate form 1, phosphoric acid addition salt of 1-methyl-1,4,5,10-tetrahydropyrazolo[3,4-b][1,5]benzodiazepine]
[1]
  change in form by XRPD post-DVS analysis: No evidence of form changes or hydrate formation
[1]; DVS, 25° C.
  hygroscopicity: slightly hygroscopic
[1]; at 90% RH
  DVS mass increase: about 0.4%
[2]
  changes in form by XRPD: no changes in form
  changes in purity by HPLC: did not identify any significant changes in purity
[3]; material slurried in water
  change in XRPD pattern: No change in XRPD pattern
[3]; slurry in deionized water, ambient temperature
  salt disproportionation: Salt disproportionation was not observed; also recorded: No evidence
[4]
  change in XRPD pattern: No change in XRPD pattern
  hydrate formation: Hydrate formation was not observed; also recorded: No evidence
[5]; PBS buffer at pH 7.4, ambient temperature, about 24 hours, HPLC
  solubility: 7400 µg/mL
[5]; mother liquor of PBS pH 7.4 slurry
  pH (t = 24 h): 3.48
[6]
  oxycodone withdrawal-induced jumping: significantly inhibited

Reference: patent US20240287074A1, “SALTS AND CRYSTALS” (Kinoxis Therapeutics Pty Ltd, priority 2020, published 2024)
